The source made the active and inactive calls. How the calls were made is not given here.
Tests used:
[1] = concentration-response yeast growth inhibition under permissive conditions, counter-assay for yeast lifespan-shortening chemical project (AID 850); details: Saccharomyces cerevisiae growth inhibition, permissive control, measured here: maximum growth inhibition, stronger effect = higher value;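 further: growth read as optical density after one day of incubation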
[2] = system: Saccharomyces cerevisiae growth inhibition, permissive control; experiment: as above

For `Cc1nc2ccccc2c2c1C(=O)N(C)C2=O`, the inhibition ([1]; at 12.5 µM) was 20.3% and the IC50 [2] was > 100 µM (inactive).
With `CCCn1c(C(C)NC(C)=O)nc2ccccc21` (configuration not stated) the inhibition ([1]; at 12.5 µM) was 9.66% and the IC50 [2] was > 100 µM (inactive).
Work on `CCCc1ccc(Oc2c(-c3ccc(O)c(C)c3O)n[nH]c2C)cc1` yielded an inhibition ([1]; at 50 µM) of 93.6% and an IC50 [2] of 14.8 µM.
In the case of `Cc1ccc(NC(=O)CSC2=C(C#N)C(c3ccc4c(c3)OCO4)C3=C(CCCC3=O)N2)c(C)c1` (configuration not stated), the inhibition ([1]; at 0.195 µM) is reported as 8.26% and the IC50 [2] is reported as > 100 µM (inactive).
`COC1=C(N)C(=O)c2nc(-c3nc(C(=O)O)c(C)c(-c4ccc(OC)c(OC)c4O)c3N)ccc2C1=O` gave an inhibition ([1]; at 50 µM) of 98.7% and an IC50 [2] of 0.463 µM.
In the case of `O=C(O)c1ccc2c3c(ncnc13)-c1ccccc1C2=O`, the inhibition ([1]; at 50 µM) is reported as 98.6% and the IC50 [2] is reported as 5.54 µM.
For `CC12C(=O)N(c3cccc4cccnc34)C(=O)C1C1C=CC2C1` (configuration not stated), the inhibition ([1]; at 0.781 µM) was 13.8% and the IC50 [2] was > 100 µM (inactive).
In the case of `CCN1/C(=C/C=C/C=C/c2sc3ccccc3[n+]2CC)Sc2ccccc21`, the inhibition ([1]; at 25 µM) is reported as 87.5% and the IC50 [2] is reported as 11.3 µM.
For `CC1/C(=N/O)CC(c2ccccc2)N(C)C1c1ccccc1` (configuration not stated), the inhibition ([1]; at 25 µM) was 94.8% and the IC50 [2] was under 0.098 µM.
Compound `CCCC(=O)NC(c1cccs1)c1cc([N+](=O)[O-])c2cccnc2c1O` (configuration not stated) has an inhibition ([1]; at 50 µM) of 96.5% and an IC50 [2] of 24.1 µM.
In the case of `S=C(NCc1ccc(Cl)cc1)NC12CC3CC(CC(C3)C1)C2`, the inhibition ([1]; at 0.195 µM) is reported as 14.1% and the IC50 [2] is reported as > 100 µM (inactive).
With `FC(F)Sc1ccc(Nc2ncnc3nc[nH]c23)cc1` the inhibition ([1]; at 1.563 µM) was 11.9% and the IC50 [2] was > 100 µM (inactive).
Compound `Cc1nn2c(-c3ccncc3)nnc2c2ccccc12` has an inhibition ([1]; at 25 µM) of 73.2% and an IC50 [2] of 11.8 µM.
In the case of `COc1ccc(-c2nnc3sc(C(C)N4C(=O)c5ccccc5C4=O)nn23)cc1` (configuration not stated), the inhibition ([1]; at 6.25 µM) is reported as 14% and the IC50 [2] is reported as > 100 µM (inactive).
Compound `C=CCN1C(C(=O)c2ccccc2)=C(OC(=O)COc2ccccc2)c2ccccc2S1(=O)=O` has an inhibition ([1]; at 50 µM) of 65.8% and an IC50 [2] of 43.1 µM.
Compound `Cc1ccccc1N=Cc1cccc(O)c1O` has an inhibition ([1]; at 50 µM) of 99.2% and an IC50 [2] of 7.59 µM.
With `O=C1c2ccccc2C(=O)c2c1cccc2N1CCOCC1` the inhibition ([1]; at 0.195 µM) was 13.5% and the IC50 [2] was > 100 µM (inactive).
For `O=C(COc1ccccc1)N1CCN=C1SCc1cccnc1`, the inhibition ([1]; at 0.781 µM) was 11.2% and the IC50 [2] was > 100 µM (inactive).
Work on `CC(C)c1ccc2c(c1)C1(NN=C(c3ccccc3)S1)C(=O)N2` (configuration not stated) yielded an inhibition ([1]; at 50 µM) of 49.5% and an IC50 [2] of 49.5 µM.
In the case of `C=C(C)COc1ccc(-c2[nH]ncc2-c2ccc(Br)cc2)c(O)c1`, the inhibition ([1]; at 25 µM) is reported as 15.9% and the IC50 [2] is reported as > 100 µM (inactive).
For `Cc1cc(=O)[nH]c(SCc2nc3ccccc3s2)n1`, the inhibition ([1]; at 25 µM) was 13% and the IC50 [2] was > 100 µM (inactive).
For `C=C(C)COc1ccc(-c2[nH]ncc2-c2ccccc2OC)c(O)c1`, the inhibition ([1]; at 0.781 µM) was 23% and the IC50 [2] was > 100 µM (inactive).
With `Cc1cccnc1Nc1nc(-c2ccccn2)cs1` the inhibition ([1]; at 50 µM) was 94.5% and the IC50 [2] was 37.9 µM.
In the case of `CN1C(=O)C2(N=c3ccccc3=N2)c2ccccc21`, the inhibition ([1]; at 50 µM) is reported as 21.4% and the IC50 [2] is reported as > 100 µM (inactive).
`CCc1ccc(/C=C/C(=O)c2cc(Br)ccc(=O)c2O)cc1` gave an inhibition ([1]; at 50 µM) of 83.6% and an IC50 [2] of 13.3 µM.
`Clc1ccc(N/N=C/c2cccnc2)cc1` showed an inhibition ([1]; at 25 µM) of 78.3% and an IC50 [2] of 19 µM.
`CCOC(=O)c1c(/N=C/c2cccc([N+](=O)[O-])c2O)sc(C)c1C` showed an inhibition ([1]; at 50 µM) of 58.5% and an IC50 [2] of 30.7 µM.
For `CCCC1COC(Cn2cncn2)(c2ccc(C)cc2)O1` (configuration not stated), the inhibition ([1]; at 25 µM) was 94.7% and the IC50 [2] was 1.83 µM.
With `CCOC(=O)c1c(NC(=O)C(C)Sc2cccc[n+]2[O-])sc2c1CCN(Cc1ccccc1)C2` (configuration not stated) the inhibition ([1]; at 50 µM) was 98.6% and the IC50 [2] was 16.3 µM.
Compound `CN1C(=O)/C(=N/OC(=O)c2ccccc2)c2ccccc21` has an inhibition ([1]; at 50 µM) of 90.8% and an IC50 [2] of 46.3 µM.
In the case of `CCCCCCCCCCCCCCCC[n+]1cccc(C(=O)N(CC)CC)c1`, the inhibition ([1]; at 50 µM) is reported as 101% and the IC50 [2] is reported as 1.82 µM.
